# System: Radiation Induced Oral Mucositis
# Assay: Syrian Hamster Model Radiation Induced Oral Mucositis Study
# Assay type: in vivo
# Settings: 40 Gy radiation Day 0
# Procedure: Various CSA compounds were screened to determine and compare therapeutic effect on oral mucositis. The test was conducted according to a Syrian Hamster Model Radiation Induced Oral Mucositis Study Design as in Table 1. [table] The objective of the study was to identify compounds that can maintain oral mucositis score below 3 in hamster model according to the scoring system in Table 2. [table]
smiles,measurement,setting,value
CCCCCCCCNC(=O)CC[C@@H](C)[C@H]1CC[C@H]2[C@@H]3[C@H](OCCCN)C[C@@H]4C[C@H](OCCCN)CC[C@]4(C)[C@H]3C[C@H](OCCCN)[C@]12C [CSA-192],"reduction in oral mucositis (percent of animal days with mucositis, FIG. 2)","topical T.I.D. Day -1 to 28, 300 or 1000 ppm, mucositis evaluated Day 6 to 28",greater than 90%
same,oral mucositis severity scores (FIG. 3),"topical T.I.D. Day -1 to 28, score 0-5 every 2 days, Day 6 to 28",strongest and longest lasting reduction in oral mucositis
